The source made the active and inactive calls.
Columns and labels:
[1] = target: T1, Corticotropin-releasing factor receptor 2/Corticotropin-releasing factor-binding protein (Homo sapiens, UniProt P24387+Q13324); assay: Dose Response confirmation of uHTS hits for small molecule antagonists of the CRF-binding protein and CRF-R2 receptor complex.; assay type: functional; details: read-out: IC50_Mean
T1 sequence (Q13324 whole entry): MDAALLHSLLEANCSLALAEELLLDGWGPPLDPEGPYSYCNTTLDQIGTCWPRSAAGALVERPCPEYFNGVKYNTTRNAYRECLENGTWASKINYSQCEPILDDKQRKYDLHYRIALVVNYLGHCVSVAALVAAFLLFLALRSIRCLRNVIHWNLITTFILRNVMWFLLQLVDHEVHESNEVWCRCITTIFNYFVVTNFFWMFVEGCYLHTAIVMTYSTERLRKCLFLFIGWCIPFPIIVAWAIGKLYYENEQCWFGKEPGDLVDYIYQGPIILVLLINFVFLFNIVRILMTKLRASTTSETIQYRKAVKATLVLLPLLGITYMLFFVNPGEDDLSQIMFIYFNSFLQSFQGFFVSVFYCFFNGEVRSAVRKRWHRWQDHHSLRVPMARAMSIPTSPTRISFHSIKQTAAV
T1 sequence (P24387 whole entry): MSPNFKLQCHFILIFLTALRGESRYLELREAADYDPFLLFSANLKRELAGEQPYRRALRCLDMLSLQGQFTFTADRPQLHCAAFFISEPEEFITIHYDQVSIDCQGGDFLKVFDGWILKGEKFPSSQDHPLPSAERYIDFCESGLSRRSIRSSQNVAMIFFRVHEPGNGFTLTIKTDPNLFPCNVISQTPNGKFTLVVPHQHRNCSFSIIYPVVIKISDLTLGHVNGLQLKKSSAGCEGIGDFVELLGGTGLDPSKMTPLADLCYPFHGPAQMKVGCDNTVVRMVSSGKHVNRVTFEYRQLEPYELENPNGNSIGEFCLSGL

[2] = target: T1, Corticotropin-releasing factor receptor 2/Corticotropin-releasing factor-binding protein; assay: activators of CRF receptor 2 with binding protein – uHTS hits, confirmation (AID 602473); assay type: functional; details: read-out: EC50_Mean
[3] = target: T2, Heat shock factor protein 1 (Mus musculus, UniProt P38532); assay: enhancement of HSF1-driven luciferase signal – cell-based, NIH3T3, luminescence, dose retest, confirmation (AID 435004); assay type: functional;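 further: stress induced by proteasome inhibitor MG132 added 30 min after compound; luciferase reporter driven by HSF1 response element in NIH3T3 cells; actives raise luminescence as potentiators of the MG132 stress response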
T2 sequence (P38532 whole entry): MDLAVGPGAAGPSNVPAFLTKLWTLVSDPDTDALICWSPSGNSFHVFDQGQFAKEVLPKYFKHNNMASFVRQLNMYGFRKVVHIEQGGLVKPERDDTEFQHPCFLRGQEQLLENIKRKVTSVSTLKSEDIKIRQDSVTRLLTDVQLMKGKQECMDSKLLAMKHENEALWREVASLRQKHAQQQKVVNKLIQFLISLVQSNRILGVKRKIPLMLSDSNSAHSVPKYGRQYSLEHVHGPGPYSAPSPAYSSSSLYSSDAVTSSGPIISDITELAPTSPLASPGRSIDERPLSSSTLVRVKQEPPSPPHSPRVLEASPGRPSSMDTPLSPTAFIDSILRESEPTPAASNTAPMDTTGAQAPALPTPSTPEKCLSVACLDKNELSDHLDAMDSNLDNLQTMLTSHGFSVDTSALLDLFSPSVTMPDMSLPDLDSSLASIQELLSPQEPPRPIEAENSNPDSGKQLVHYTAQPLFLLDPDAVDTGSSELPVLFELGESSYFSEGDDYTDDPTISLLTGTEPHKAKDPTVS

cells = assay type: functional
[4] = viability of HCT116 lacking mutant beta-catenin – cell-based, human colon tumor, dose response (AID 1045); assay type: functional;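 further: HCT116 colon tumor cells with beta catenin knocked out; cells exposed to compound for 60 hours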
[5] = viability of PTEN-deleted HCT116 cells – cell-based, HCT116 PTEN knockout, dose response (AID 1047); assay type: functional;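 further: HCT116 colon tumor cells with PTEN knocked out; cells exposed to compound for 60 hours before readout; potency for loss of cell viability measured by luminescence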
INS1 = assay: INS-1E survival protection against cytokine death – cell-based, luminescence, retest, dose response (AID 449756); assay type: functional; details: Rattus norvegicus;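 further: cell death triggered by IL-1 beta plus TNF-alpha plus IFN-gamma mixture; protective hits raise ATP signal compared with cytokine alone wells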
[6] = Luminescence Cell-Based Dose Retest to Confirm Inhibitors of Cancer Stem Cells. [Related pubchem assays (depositor defined):AID2717, AID2721]; assay type: functional; details: Homo sapiens
H9c2 = assay: cells; assay type: functional, cell-based; details: Rattus norvegicus, H9c2, Myocardium;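 further: confirmatory concentration-response retest of ultra-high-throughput screening hits for modulation of myocardial damage; cell death induced by hydrogen peroxide oxidative stress; compound pretreatment for 60 min then peroxide exposure for 2 h; potency is for protecting the cells against peroxide damage rather than for killing them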
[7] = target: T3, Polyadenylate-binding protein 1 (Homo sapiens, UniProt P11940); assay: MLLE domain peptide-binding blockers, IC50 – biochemical, fluorescence polarization, FITC-PAM2 peptide, dose response (AID 602259); assay type: functional; details: read-out: IC50_Mean
[8] = target: T3, Polyadenylate-binding protein 1; assay: MLLE binding blockers, Cy5 peptide tracer – biochemical, fluorescence polarization, Cy5-PAM2 peptide, secondary, miRNA deadenylation inhibitor project, dose response (AID 602260); assay type: functional; details: read-out: IC50_Mean
[9] = NIH3T3 cell viability loss – ATP luminescence, mouse fibroblasts, counter-screen, dose response (AID 2010); assay type: functional, cell-based;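 further: cells exposed to compound for about 90 hours before reading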
[10] = Trypanosoma cruzi growth suppression in host cells – NIH3T3 host cells, beta-gal luminescence, confirmation (AID 2044); assay type: functional, cell-based;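 further: intracellular parasites grown in NIH/3T3 mouse fibroblasts as host cells; luminescent beta-galactosidase reporter signal from transgenic T. cruzi replicating inside host cells; inhibitors lower the luminescence signal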
[11] = target: T2, Heat shock factor protein 1; assay: decrease of HSF1-responsive luciferase luminescence – cell-based, NIH3T3, dose retest, confirmation (AID 2382); assay type: functional;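 further: NIH3T3 fibroblasts with HSF1-driven luciferase reporter stressed by proteasome inhibitor MG132; luminescence from HSF1-driven luciferase expression after 8 hours of MG132 stress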

T3 sequence (P11940 whole entry, the tested form may be a part): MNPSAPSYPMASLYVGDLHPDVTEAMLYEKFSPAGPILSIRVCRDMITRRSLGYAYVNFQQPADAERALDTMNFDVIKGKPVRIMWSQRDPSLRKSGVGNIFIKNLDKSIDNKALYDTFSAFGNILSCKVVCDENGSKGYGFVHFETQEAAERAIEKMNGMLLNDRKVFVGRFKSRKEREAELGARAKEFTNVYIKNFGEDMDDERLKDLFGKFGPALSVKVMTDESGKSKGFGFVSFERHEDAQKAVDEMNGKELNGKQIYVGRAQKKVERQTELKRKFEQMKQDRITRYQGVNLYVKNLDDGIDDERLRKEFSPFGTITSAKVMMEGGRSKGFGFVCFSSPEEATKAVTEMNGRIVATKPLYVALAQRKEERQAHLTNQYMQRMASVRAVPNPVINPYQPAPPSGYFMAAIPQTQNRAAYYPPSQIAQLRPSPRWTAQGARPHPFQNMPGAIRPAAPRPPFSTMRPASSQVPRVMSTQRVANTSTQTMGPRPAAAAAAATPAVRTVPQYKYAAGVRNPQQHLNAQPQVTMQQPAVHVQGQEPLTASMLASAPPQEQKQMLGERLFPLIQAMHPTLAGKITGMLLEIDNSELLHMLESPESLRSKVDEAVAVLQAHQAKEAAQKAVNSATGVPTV

SMILES: O=C(NCN1CCCCC1)c1cnccn1
- IC50 [1]: > 47.1 µM (inactive)
- EC50 [2]: > 53 µM (inactive)

SMILES: NC(=O)c1nsc(C(=O)N(c2ccccc2)C(C(=O)NCC2CCCO2)c2cccs2)c1N (centres undefined)
- EC50 [3]: > 260 µM (inactive)

SMILES: COc1ccc(/C=C/C(=O)C23CC4CC(CC(C4)C2)C3)cc1CN1CCOCC1
- EC50 [3]: 46 µM (active)

SMILES: CCC(C)c1ccc(OCCn2ccnc2)cc1 (centres undefined)
- IC50 (cells): 22.6 µM (active)

SMILES: CCN(CC)CCNc1ncnc2c1sc1nc(N3CCOCC3)c3c(c12)CC(C)(C)SC3
- EC50 [4]: 7.85 µM (active)
- EC50 [5]: 8.46 µM (active)
- AC50 (INS1): 12.5 µM (active)
- AC50 [6]: 8.39 µM (active)

SMILES: CCOC(=O)COc1cc([N+](=O)[O-])cc2cccnc12
- IC50 (cells): 46.4 µM (active)

SMILES: N#Cc1ccc(NC(=O)COC(=O)CSc2nnc(-c3ccc(Cl)cc3)o2)cc1
- IC50 [1]: > 47.1 µM (inactive)
- EC50 [2]: > 53 µM (inactive)

SMILES: CCOC(=O)c1c(C)c(C(=O)Nc2ccc3c(c2)OCO3)c(C)n1C
- EC50 [3]: > 260 µM (inactive)

SMILES: CC(=O)Nc1cccc(NC(=O)CSc2ccc(-c3ccccn3)nn2)c1
- IC50 (H9c2): 24.5 µM (active)

SMILES: COCCCNc1nc2ccccc2nc1NS(=O)(=O)c1cccc(Cl)c1
- IC50 [7]: > 66 µM (inactive)
- IC50 [8]: > 66 µM (inactive)

SMILES: COc1cccc(C(=O)CSc2nnc(-c3cc(OC)c(OC)c(OC)c3)o2)c1
- IC50 (H9c2): > 79 µM (inactive)

SMILES: CSc1ccc(C2C(C#N)=C(N)N(c3ccccc3)C3=C2C(=O)CCC3)cc1 (centres undefined)
- EC50 [3]: 27 µM (active)

SMILES: Cc1c(C(=O)NCC2COc3ccccc3O2)oc2ccc(S(=O)(=O)N3CCOCC3)cc12 (centres undefined)
- IC50 (H9c2): > 79 µM (inactive)

SMILES: O=c1oc2ccccc2c2c1nc(C(F)(F)F)n2-c1ccccc1
- IC50 (cells): 11.4 µM (active)

SMILES: O=C(c1ccco1)N1CCN(C(=O)c2cc(-c3ccncc3)nc3ccc(Br)cc23)CC1
- EC50 [9]: > 60 µM (not active)
- EC50 [10]: 3.83 µM (active)
- IC50 (H9c2): 7.04 µM (active)

SMILES: CCOC(=O)C(C(=O)OCC)C(Nc1ccc(Br)cc1)c1ccccc1 (centres undefined)
- EC50 [5]: 276 µM (active)
- EC50 [3]: 15.2 µM (active)
- AC50 [6]: 8.85 µM (active)

SMILES: CC(C)(C)C(=O)Nc1cccc(-c2nnc(-c3cccc(NC(=O)C(C)(C)C)c3)o2)c1
- IC50 (H9c2): > 79 µM (inactive)

SMILES: O=C1NC(c2ccc(Cl)c([N+](=O)[O-])c2)Nc2ccccc21 (centres undefined)
- IC50 (H9c2): 21.9 µM (active)

SMILES: Cc1cccc(-n2c(SCC(=O)N3CC(=O)Nc4ccccc43)nc3ccccc3c2=O)c1C
- IC50 [1]: > 47.1 µM (inactive)
- EC50 [2]: > 53 µM (inactive)

SMILES: O=C(CCc1nc(O)c2ccccc2n1)NCc1ccco1
- EC50 [11]: > 195 µM (not active)
- IC50 (H9c2): > 79 µM (inactive)

SMILES: COc1ccc(C(=O)COC(=O)CCNS(=O)(=O)c2ccc(NC(C)=O)cc2)c(OC)c1
- IC50 [1]: > 47.1 µM (inactive)
- EC50 [2]: > 53 µM (inactive)

SMILES: CS(=O)(=O)N(CC(=O)N1CCN(Cc2ccc3c(c2)OCO3)CC1)Cc1ccc(Cl)cc1
- EC50 [4]: 77.1 µM (active)
- EC50 [5]: 497 µM (active)

SMILES: CCC(Sc1nnc2c3ccccc3n(CC)c2n1)C(=O)Nc1sc2c(c1C#N)CCCC2 (centres undefined)
- EC50 [4]: 10.4 µM (active)
- EC50 [5]: 11.7 µM (active)

SMILES: CCN(CC)C(=O)c1c(C)nc2ccccn12
- IC50 [1]: > 47.1 µM (inactive)
- EC50 [2]: > 53 µM (inactive)

SMILES: C=CCn1c(SCC(=O)Nc2c(C)cccc2C)nnc1-c1ccncc1
- IC50 [1]: > 47.1 µM (inactive)
- EC50 [2]: > 53 µM (inactive)

SMILES: COc1ccc(-c2nc3c(c4nnc(SC(C)C(=O)Nc5ccccc5)n24)COC(C)(C)C3)cc1 (centres undefined)
- EC50 [4]: 8.77 µM (active)
- EC50 [5]: 9.44 µM (active)
